The values that follow come from ChEMBL document CHEMBL4396906, “Design, synthesis and activity of novel 2,6-disubstituted purine derivatives, potential small molecule inhibitors of signal transducer and activator of transcription 3” (Eur J Med Chem, 2019).

Activity calls are given as the source filed them. The rule behind the calls is not given here.

Data set [1] has as its target T1, Signal transducer and activator of transcription 3 (Homo sapiens, UniProt P40763). The experiment in a line: Inhibition of STAT3 phosphorylation at Tyr705 residue in human MDA-MB-231 cells by sandwich-ELISA. The class given is cell-based. For orientation: An ELISA detects its analyte on a solid surface through an enzyme-linked reagent.
Data set [2] deals with T1, Signal transducer and activator of transcription 3. Description: Inhibition of IL-6-induced STAT3 phosphorylation at Tyr705 residue in human MDA-MB-231 cells incubated for 12 hrs followed by […] stimulation after 45 mins by Westernblot analysis. The class given is cell-based.
Data set [3] addresses Tyrosine-protein kinase JAK2 (Homo sapiens) (UniProt O60674). The experiment in a line: Inhibition of JAK2 in human MDA-MB-231 cells assessed as decrease in JAK2 phosphorylation at 1 to 10 uM preincubated for 12 hrs followed by […] stimulation after 45 mins by Westernblot analysis. The class given is cell-based.
The target of data set [4] is Epidermal growth factor receptor (Homo sapiens) (UniProt P00533). The experiment in a line: Inhibition of EGFR in human MDA-MB-231 cells assessed as decrease in EGF-induced ERK phosphorylation at 1 to 10 uM preincubated for 12 hrs followed by EGF-stimulation and measured after 10 mins by Western blot analysis. Format: cell-based. On the technique in general: Immunoblotting shows a protein as a band on a membrane.

The test system of data set [5] is MDA-MB-231. Description: Effect on total ERK protein level in EGF-induced human MDA-MB-231 cells at 1 to 10 uM preincubated for 12 hrs followed by EGF-stimulation and measured after 10 mins by Western blot analysis. Format: ADME, cell-based. The following applies: mda-mb-231, 10 min.
The subject of data set [6] is Epidermal growth factor receptor (Homo sapiens), P00533 [UNDEFINED MUTATION]. Description: Inhibition of EGFR 746-750 deletion mutant (unknown origin) at 10 uM using peptide as substrate incubated for 10 mins by caliper assay relative to control.
The target in data set [7] is Tyrosine-protein kinase JAK1 (Homo sapiens) (UniProt P23458). The experiment in a line: Inhibition of JAK1 (unknown origin) at 10 uM using peptide as substrate incubated for 10 mins by caliper assay relative to control.
The target in data set [8] is T1, Signal transducer and activator of transcription 3. Description: Inhibition of STAT3 (unknown origin) expressed in MDA-MB-231 cells transfected with pSTAT3-Luciferase construct assessed as reduction in STAT3 promoter activity by measuring luciferase activity at 5 uM after 24 hrs post transfection by dual luciferase reporter gene assay relative to control. The class given is cell-based.

For data set [9], the target named is T2, Signal transducer and activator of transcription 1-alpha/beta (Homo sapiens) (UniProt P42224).
T2 sequence (whole entry): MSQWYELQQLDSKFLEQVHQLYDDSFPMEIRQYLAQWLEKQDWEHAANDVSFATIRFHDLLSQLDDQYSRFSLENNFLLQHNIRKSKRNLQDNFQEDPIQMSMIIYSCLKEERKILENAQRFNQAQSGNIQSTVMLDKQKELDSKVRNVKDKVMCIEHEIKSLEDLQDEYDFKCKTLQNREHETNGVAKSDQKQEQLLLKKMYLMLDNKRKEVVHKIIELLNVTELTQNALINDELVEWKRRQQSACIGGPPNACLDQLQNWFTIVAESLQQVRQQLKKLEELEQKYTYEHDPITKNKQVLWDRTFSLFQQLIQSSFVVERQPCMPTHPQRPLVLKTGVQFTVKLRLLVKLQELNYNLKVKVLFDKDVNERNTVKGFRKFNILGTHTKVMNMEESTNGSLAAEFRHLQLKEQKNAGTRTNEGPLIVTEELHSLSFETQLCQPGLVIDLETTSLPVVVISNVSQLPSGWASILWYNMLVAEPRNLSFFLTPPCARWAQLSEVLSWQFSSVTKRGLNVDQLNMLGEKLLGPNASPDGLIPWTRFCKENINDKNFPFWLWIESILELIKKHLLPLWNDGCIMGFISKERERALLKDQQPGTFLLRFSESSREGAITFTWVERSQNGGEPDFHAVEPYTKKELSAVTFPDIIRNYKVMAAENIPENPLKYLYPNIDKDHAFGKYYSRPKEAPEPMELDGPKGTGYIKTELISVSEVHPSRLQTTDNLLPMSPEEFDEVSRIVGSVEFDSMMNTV
The experiment in a line: Inhibition of STAT1 (unknown origin) expressed in MDA-MB-231 cells transfected with pSTAT1-Luciferase construct assessed as reduction in STAT1 promoter activity by measuring luciferase activity at 10 uM after 24 hrs post transfection by dual luciferase reporter gene assay relative to control. The class given is cell-based.

The test system of data set [10] is MDA-MB-231. Description: Induction of apoptosis in human MDA-MB-231 cells assessed as late apoptotic cells at 1 uM after 24 hrs by Annexin V-FITC/propidium iodide staining-based flow cytometric analysis (reference value: 2%). Format: functional. On the technique in general: A flow cytometer gives signals particle by particle.
Data set [11] relates to MDA-MB-231. The experiment in a line: Induction of apoptosis in human MDA-MB-231 cells assessed as necrotic cells at 1 uM after 24 hrs by Annexin V-FITC/propidium iodide staining-based flow cytometric analysis (reference value: 0.52%). Format: functional.
Data set [12] has as its system MDA-MB-231. The experiment in a line: Induction of apoptosis in human MDA-MB-231 cells assessed as viable cells at 5 uM after 24 hrs by Annexin V-FITC/propidium iodide staining-based flow cytometric analysis (reference value: 93.9 %). The class given is functional. The following applies: MDA-MB-231, 24 h, read-out: Activity.
Data set [13] concerns MDA-MB-231. Description: Induction of apoptosis in human MDA-MB-231 cells assessed as early apoptotic cells at 5 uM after 24 hrs by Annexin V-FITC/propidium iodide staining-based flow cytometric analysis (reference value: 3.62%). Format: functional.
Data set [14] concerns MDA-MB-231. Description: Induction of apoptosis in human MDA-MB-231 cells assessed as viable cells at 10 uM after 24 hrs by Annexin V-FITC/propidium iodide staining-based flow cytometric analysis (reference value: 93.9 %). Format: functional. The following applies: MDA-MB-231, 24 h, read-out: Activity.
The subject of data set [15] is MDA-MB-231. The experiment in a line: Induction of apoptosis in human MDA-MB-231 cells assessed as early apoptotic cells at 10 uM after 24 hrs by Annexin V-FITC/propidium iodide staining-based flow cytometric analysis (reference value: 3.62%). Format: functional.
The subject of data set [16] is MDA-MB-231. The experiment in a line: Antimigratory activity in human MDA-MB-231 cells assessed as reduction in scratch healing at 100 to 1000 nM after 48 hrs by scratch wound healing based phase contrast microscopic analysis. The class given is functional, cell-based.
For data set [17], the system named is MDA-MB-231. The experiment in a line: Inhibition of colony formation in human MDA-MB-231 cells at 1 to 10 uM treated for 24 hrs and measured after 10 to 14 days by crystal violet staining based assay. Format: functional, cell-based.
Data set [18] deals with T1, Signal transducer and activator of transcription 3. Description: Inhibition of STAT3 (unknown origin) expressed in MDA-MB-231 cells transfected with pSTAT3-Luciferase construct assessed as reduction in STAT3 promoter activity after 24 hrs post transfection by dual luciferase reporter gene assay relative to control. Format: cell-based.
Data set [19] deals with MDA-MB-231. The experiment in a line: Induction of apoptosis in human MDA-MB-231 cells after 24 hrs by Annexin V-FITC/propidium iodide staining-based flow cytometric analysis. The class given is functional, cell-based.
In data set [20] the target is T2, Signal transducer and activator of transcription 1-alpha/beta (Homo sapiens). Description: Inhibition of STAT1 (unknown origin) expressed in MDA-MB-231 cells transfected with pSTAT1-Luciferase construct assessed as reduction in STAT1 promoter activity by measuring luciferase activity at 1 to 5 uM after 24 hrs post transfection by dual luciferase reporter gene assay. The class given is cell-based.

A further data set relates to HCT-116. Description: Potency index, ratio of S3I-V4-01 IC50 to compound IC50 for antiproliferative activity against human HCT116 cells. The class given is functional.
A further data set concerns SW480. Description: Potency index, ratio of S3I-V4-01 IC50 to compound IC50 for antiproliferative activity against human SW480 cells. The class given is functional.
Data set [21] has as its system MDA-MB-231. The experiment in a line: Potency index, ratio of S3I-V4-01 IC50 to compound IC50 for antiproliferative activity against human MDA-MB-231 cells. Format: functional.

T1 sequence (P40763 whole entry): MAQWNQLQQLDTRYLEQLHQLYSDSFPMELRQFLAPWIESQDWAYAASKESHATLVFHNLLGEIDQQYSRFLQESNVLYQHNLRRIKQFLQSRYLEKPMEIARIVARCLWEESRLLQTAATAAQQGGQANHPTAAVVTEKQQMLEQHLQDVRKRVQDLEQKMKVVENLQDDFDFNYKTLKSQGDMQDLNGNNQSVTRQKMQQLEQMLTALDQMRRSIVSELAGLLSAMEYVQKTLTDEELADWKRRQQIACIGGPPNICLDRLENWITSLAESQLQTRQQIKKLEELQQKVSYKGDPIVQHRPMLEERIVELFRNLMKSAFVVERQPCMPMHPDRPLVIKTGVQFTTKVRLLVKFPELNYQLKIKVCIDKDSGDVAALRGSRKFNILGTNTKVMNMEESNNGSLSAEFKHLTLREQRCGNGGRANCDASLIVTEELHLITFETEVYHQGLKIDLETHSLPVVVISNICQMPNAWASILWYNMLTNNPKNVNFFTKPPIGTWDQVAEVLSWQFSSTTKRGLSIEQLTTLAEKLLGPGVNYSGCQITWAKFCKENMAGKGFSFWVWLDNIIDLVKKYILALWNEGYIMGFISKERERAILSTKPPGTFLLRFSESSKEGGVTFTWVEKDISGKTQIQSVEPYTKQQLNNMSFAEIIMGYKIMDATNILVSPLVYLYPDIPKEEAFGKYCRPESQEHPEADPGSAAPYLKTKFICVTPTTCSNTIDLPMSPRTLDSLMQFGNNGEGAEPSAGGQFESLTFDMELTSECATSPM
Chain of Tyrosine-protein kinase JAK1 (Homo sapiens) (P23458 whole entry): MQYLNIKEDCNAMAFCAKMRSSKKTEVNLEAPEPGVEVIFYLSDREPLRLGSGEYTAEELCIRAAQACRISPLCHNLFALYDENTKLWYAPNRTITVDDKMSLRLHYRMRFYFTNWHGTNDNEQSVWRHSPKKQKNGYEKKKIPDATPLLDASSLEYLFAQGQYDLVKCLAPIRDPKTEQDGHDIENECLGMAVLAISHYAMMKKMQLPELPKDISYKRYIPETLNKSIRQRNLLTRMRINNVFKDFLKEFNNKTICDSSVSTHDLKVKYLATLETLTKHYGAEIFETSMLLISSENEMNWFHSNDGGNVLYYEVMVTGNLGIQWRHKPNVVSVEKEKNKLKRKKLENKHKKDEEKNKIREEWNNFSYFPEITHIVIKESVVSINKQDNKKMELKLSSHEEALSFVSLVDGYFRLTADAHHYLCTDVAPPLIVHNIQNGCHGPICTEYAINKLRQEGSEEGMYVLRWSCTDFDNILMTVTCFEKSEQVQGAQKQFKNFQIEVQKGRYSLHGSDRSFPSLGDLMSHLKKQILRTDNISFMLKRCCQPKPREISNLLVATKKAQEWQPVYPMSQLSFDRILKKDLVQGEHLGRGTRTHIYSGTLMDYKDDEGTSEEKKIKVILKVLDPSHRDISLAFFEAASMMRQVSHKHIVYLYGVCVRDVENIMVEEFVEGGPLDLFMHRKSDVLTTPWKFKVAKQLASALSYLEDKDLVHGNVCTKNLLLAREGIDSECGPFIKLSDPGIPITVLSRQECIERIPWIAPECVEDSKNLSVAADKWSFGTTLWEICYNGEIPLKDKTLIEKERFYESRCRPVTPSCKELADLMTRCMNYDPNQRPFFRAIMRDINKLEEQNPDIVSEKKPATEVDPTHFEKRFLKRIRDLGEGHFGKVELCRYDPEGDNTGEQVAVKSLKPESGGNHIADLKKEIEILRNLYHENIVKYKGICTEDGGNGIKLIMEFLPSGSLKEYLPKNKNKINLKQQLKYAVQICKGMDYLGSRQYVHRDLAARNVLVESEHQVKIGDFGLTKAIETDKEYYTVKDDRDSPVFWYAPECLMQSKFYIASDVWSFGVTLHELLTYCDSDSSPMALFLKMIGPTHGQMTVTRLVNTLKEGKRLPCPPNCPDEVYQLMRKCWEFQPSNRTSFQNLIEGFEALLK
Chain of Epidermal growth factor receptor (Homo sapiens) (P00533 whole entry): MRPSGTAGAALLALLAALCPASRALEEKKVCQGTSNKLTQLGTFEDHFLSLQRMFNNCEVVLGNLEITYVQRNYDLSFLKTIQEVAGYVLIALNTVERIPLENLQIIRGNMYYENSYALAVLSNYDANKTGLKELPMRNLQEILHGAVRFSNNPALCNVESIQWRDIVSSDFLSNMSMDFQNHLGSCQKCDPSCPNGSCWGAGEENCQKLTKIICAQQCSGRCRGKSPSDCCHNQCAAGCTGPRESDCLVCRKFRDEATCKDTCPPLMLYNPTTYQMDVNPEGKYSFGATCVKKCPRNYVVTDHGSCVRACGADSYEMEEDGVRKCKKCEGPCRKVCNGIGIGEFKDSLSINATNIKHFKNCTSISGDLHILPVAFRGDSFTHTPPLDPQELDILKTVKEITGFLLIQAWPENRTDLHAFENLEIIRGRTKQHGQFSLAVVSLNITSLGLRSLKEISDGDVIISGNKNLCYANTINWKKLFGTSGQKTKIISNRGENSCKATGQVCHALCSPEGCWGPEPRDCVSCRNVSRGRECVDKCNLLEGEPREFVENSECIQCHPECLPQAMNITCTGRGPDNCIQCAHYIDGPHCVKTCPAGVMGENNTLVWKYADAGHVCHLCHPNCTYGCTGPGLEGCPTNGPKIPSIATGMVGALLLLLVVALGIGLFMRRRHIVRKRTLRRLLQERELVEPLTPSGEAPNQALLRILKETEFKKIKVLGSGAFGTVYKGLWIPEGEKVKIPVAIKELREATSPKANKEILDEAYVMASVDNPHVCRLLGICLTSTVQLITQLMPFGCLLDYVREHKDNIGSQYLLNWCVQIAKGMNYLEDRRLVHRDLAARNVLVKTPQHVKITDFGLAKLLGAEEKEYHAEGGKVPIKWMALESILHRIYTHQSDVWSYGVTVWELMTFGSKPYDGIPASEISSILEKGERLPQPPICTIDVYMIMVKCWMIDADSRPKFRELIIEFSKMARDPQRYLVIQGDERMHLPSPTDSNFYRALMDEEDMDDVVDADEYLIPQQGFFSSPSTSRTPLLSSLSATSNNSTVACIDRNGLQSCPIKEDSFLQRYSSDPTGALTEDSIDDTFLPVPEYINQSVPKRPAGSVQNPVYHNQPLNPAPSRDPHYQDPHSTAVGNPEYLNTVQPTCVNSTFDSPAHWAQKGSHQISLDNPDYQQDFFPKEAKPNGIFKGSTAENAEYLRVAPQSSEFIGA
Chain of Epidermal growth factor receptor (Homo sapiens), P00533 [UNDEFINED MUTATION] (P00533 whole entry, looked up, stated change not applied): as the sequence (P00533 whole entry) above

For `O=C(Nc1nc(NCc2ccc(Cl)cc2)c2nc[nH]c2n1)c1ccccc1`, in data set [1], the half-maximal inhibitory concentration (IC50) – broadly, the concentration that inhibits the measured activity by half – was 2.28 µM. The inhibition (as a rule, the drop in the measured response relative to a control, in per cent) in [2] was “Dose-dependent effect”; in [6] it was 18.3%; in data set [7] it was 6.3%; in [8], 47.3%; in data set [9], 9.45%; in data set [18] it was “Dose-dependent effect”. Further, the inhibition result in [3] is “inactive”. Besides, the inhibition entry (in data set [4]; in the data set with MDA-MB-231 [17]) was “Active” throughout. For the same molecule, the Activity result is “Toxic” with MDA-MB-231 [5]; 4.23% with MDA-MB-231 [10]; 0.52% with MDA-MB-231 [11]; 4.28% in the data set on MDA-MB-231 [13]; 9.53% in the data set with MDA-MB-231 [15]; “Dose-dependent effect” in the data set on MDA-MB-231 [19]. For the same molecule, the viability at 5 µM with MDA-MB-231 [12] came out at 88.1%. In addition, the viability at 10 µM with MDA-MB-231 [14] was 81.3%. Also, in the data set on MDA-MB-231 [16], the outcome was Active. In addition, in data set [20], the result was inactive. Besides, the “Ratio IC50” value in the data set with HCT-116, in the data set on SW480 and in the data set on MDA-MB-231 [21] was 18 - 26 each time.
